According to patent publication US6767569B1, “Surface decontamination of cooked sausage and processed meat and poultry products” (priority 1999, dated 2004):

Tests used:
Assay type in all cases: cell-based
E. coli [1] = details: pork skin; 5 seconds spray; 2% lactic acid, 2% acetic acid, 0.1% peracetic acid; after 24 hours
Description: (§1) Samples of pork skin were inoculated separately with either 5 strains of E. coli or 5 strains of Salmonella spp. (mixtures X and Y, see Example 4). Five different treatments were evaluated for effectiveness in reducing bacteria on pork skin. […] EMB agar was used for E. coli and XLD for Salmonella, and a nutrient agar was also used for E. coli and Salmonella for total count.
(§2) The five strains of generic E. coli and five strains of Salmonella spp. were cultured and transferred individually into 100 mL of tryptic soy broth (TSB, DIFCO, Detroit, Mich.) with 1% dextrose (Sigma, St. Louis, Mo.) in duplicate. Dextrose was added to induce acid tolerance in the microbial cell. The cultures were incubated at 35° C. for 24 hrs. to obtain ca. 10^9 colony forming units (CFU)/mL. The cells were harvested by the centrifuging each culture at 10,000 Xg force for 10 min. at 4° C., (Beckman J2-HS centrifuge, Beckman Instruments, Inc., Palo Alto, Calif.). After centrifugation, the supernatant was poured off, and cells remained in pellet form. Each pellet was individually re-suspended with 50 mL of 0.1% peptonewater (DIFCO, Detroit, Mich.). All five strains of E. coli or Salmonella spp. inoculum were transferred to separate HDPE plastic spray bottles (Sprayco™, Detroit, Mich.) to be used in the mist inoculation of pork skin samples.
(§3) For E. coli, PCA and EMB media were used, and for Salmonella, PCA and XLD media were used. Bacto Plate Count Agar (PCA) was used in this study as a standard methods medium for the enumeration of bacteria before and after treatments. Spiral (sl), or spread (sd) plate technique were used for viable cell counts. Duplicate plates were performed for each treatment.
(§4) Fresh pork skins taken from the loin region were cut to rectangles of 19.35 cm^2. A hole was bored into the top of each sample so that each sample could be suspended from an individual hook in the spray cabinet. Samples were laid out onto trays wrapped in butcher paper. Each tray was individually spray inoculated with E. coli or Salmonella spp. in a Plexiglas spray chamber to ca. 8.4 mL of inoculum. After the inoculation, each tray was placed under a laminar flow hood for 1 hr. to allow the surface to dry and for the attachment of the bacteria to the pork skin.
(§5) The peracetic acid (PAA) used in this study was a 35.0% PAA buffered, liquid solution prepared from a STERIS 20™ two compartment cup (a dry powder containing anticorrosive additives, buffers, sequestrants, and surfactants). The peracetic acid determined before each use of the treatment using a calibration curve.
(§6) Five inoculated samples were individually placed on stainless steel hooks in. a spray cabinet at ambient temperature.
(§7) The samples were exposed to a continuous spray of the selected treatment for 5 seconds at a spray pressure of 16-18 psi.
(§8) The treated samples were placed into individual stomacher bags containing 30 mL of 0.1% peptone water (DIFCO, Detroit, Mich.) and stomached for 2 min. Serial dilutions of 0, 10^−2, and 10^−4 were spiral plated (WASP spiral plater, Bioscience International, Rockville, Md.) on PCA (DIFCO, Detroit, Mich.) and EMB (DIFCO, Detroit, Mich.) for E. coli and on plate count agar (PCA, DIFCO, Detroit, Mich.) and xylose lysine decarboxylase agar (XLD, DIFCO, Detroit, Mich.) for Salmonella spp. Samples were also spread plated on PCA and EMB agar for E. coli or PCA and XLD agar for Salmonella spp, using […] for a total of 1 mL on 4 plates. This was to ensure a countable plate. Plates were inverted and incubated at 35° C. for 24 hrs. (48 hrs. for Salmonella spp.).

Salmonella spp. [2] = details: pork skin; 5 seconds spray; 2% lactic acid, 2% acetic acid, 0.1% peracetic acid; after 48 hours
Description: as §1, §2, §3, §4, §5, §6, §7, §8

E. coli [3] = system: E. coli
Description: (§9) Each strain was subcultured on tryptic soy agar (TSA, DIFCO, Detroit, Mich.) slants and stored at 4° C. Strains were individually transferred into 100 mL of sterile 2× BHI (DIFCO, Detroit, Mich.) and incubated at 35° C. for 24 hr. to reach ca. 10^9 colony forming units/mL (CFU/mL). Then, 25 mL of each strain of E. coli was transferred into a sterile bottle (mixture X), and 25 mL of each strain of each strain of Salmonella spp. was transferred into a sterile bottle (mixture Y). Mixtures X and Y were maintained separately throughout the test.
(§10) Serial dilutions were made using Butterfields' Phosphate Buffer (BPB, Sigma, St. Louis, Mo.) in 1 mL aliquots prior to inoculation. BPB was prepared as a stock solution by adding 34 g Of KH2PO4 to 500 mL of distilled water. The pH was adjusted to 7.2, and the solution was brought to a volume of 1 L. The BPB stock was autoclaved for 20 min. at 121° C. and 15 lbs. of pressure. […] For glacial acetic acid (U.S.P.-F.C.C., J. T. Baker, Phillipsburg, N.J.), starting concentrations and serial dilutions were 50%, 25%, 12.5%, 6.25%, 3.12%, 1.56%, 0.78%, 0.39%, and a control (no treatment, buffer and culture). […] For peracetic acid 35.0% (STERIS 20™, STERIS Corporation, Mentor, Ohio), starting concentrations and serial dilutions were 17.5%, 8.75%, 4.38%, 2.19%, 1.09%, 0.55%, 0.30%, 0.14%, 0.07%, 0.03%, and a control. For liquid smoke (Hickory Specialties, Brentwood, Tenn.) starting concentrations and serial dilutions were 50%, 25%, 12.5%, 6.25%, 3.12%, 1.56%, 0.78%, 0.39%, and a control. Dilutions were prepared with deionized water.
(§11) The test tubes were incubated at 35° C. for 24 hrs. and turbidity was evaluated using McFarland equivalence standards, to study the bacteriostatic properties of the diluted solutions. In addition, each dilution was plated to evaluate the bactericidal properties of, the diluted solutions. Using a 1 μL sterile loop, each concentration and control for either microorganism mixture was streaked on plate count agar (PCA, DIFCO, Detroit, Mich.). A selective agar was also used for each mixture, eosine methylene blue agar (EMB, DIFCO, Detroit, Mich.) for E. coli and xylose lysine decarboxylase agar (XLD, DIFCO, Detroit,Mich.) for Salmonella spp. All plates were incubated for 24 hrs. at 35° C. and were inspected for growth or no growth.

Salmonella spp. [4] = details: 35 °C, 24 hrs
Description: as §9, §10, §11

CC(=O)O [Acetic Acid, acetic acid, reference compound]
Total Count (E. coli) on EMB (E. coli [1]): 4.55 Log CFU/cm^2 | Total Count (E. coli) on PCA (E. coli [1]): 4.68 Log CFU/cm^2 | Total Count (Salmonella) on PCA (Salmonella spp. [2]): 5.37 Log CFU/cm^2 | Total Count (Salmonella) on XLD (Salmonella spp. [2]): 4.27 Log CFU/cm^2 | MIC (%) (E. coli [3]): 3.12% | MIC (%) (Salmonella spp. [4]): 0.78%
